# Legend:
# [1] = system: TAM-associated genes; experiment: qRT-PCR of TAM-associated genes in CT26 tumors; format: in vivo, mouse; settings: REG(V1) vs V1, qRT-PCR
# [2] = system: AKT; experiment: Inhibition of AKT activation in CSF1-stimulated RAW264.7 cells (western blot); format: cell-based, mouse; settings: Mus musculus, mean ± SD (replicates), read-out: Mean kinase IC50 values: P(S473)AKT [WB]
# Description: RAW264.7 cells (10^6) were seeded into cell culture dishes 6 cm in diameter and incubated in 4 mL RPMI/10% fetal bovine serum (Biochrom) for 24 h at 37 °C in a humidified 5% CO2 atmosphere. Cells were washed once with phosphate-buffered saline (PBS) and starved in 3 mL RPMI/0.1% bovine serum albumin for another 24 h. Cells were then treated for 1 h at 37 °C with drugs at the indicated final concentrations, with 0.5% DMSO as vehicle control, or left untreated, and finally stimulated for 2 min at 37 °C with 100 ng/mL recombinant mouse CSF1 (R&D Systems) by adding 1 mL prewarmed starving medium containing 400 ng/mL CSF1. Dishes were placed on ice and cells were immediately washed with ice-cold PBS and lysed with 50 µL lysis buffer (50 mM HEPES pH 7.5, 150 mM NaCl, 1.5 mM MgCl2, 10% glycerol, 1% Triton X-100, 0.5% desoxycholate, 0.2% sodium dodecyl sulfate, 1 mM ethylene glycol-bis[β-aminoethyl ether]-N,N,N′,N′-tetraacetic acid, 100 mM NaF, 10 mM Na4P2O7, 1 mM Na3VO4, 1% Phosphatase Inhibitor Cocktail 3 [Sigma-Aldrich], 1 mM phenylmethyl sulfonyl fluoride, Complete Protease Inhibitor Cocktail [Roche CustomBiotech; 1 tablet/10 mL], and 50 U/mL Benzonase [Sigma-Aldrich]). Lysed cells were scraped into Eppendorf tubes, incubated on ice for 20 min, and centrifuged at 4 °C for 10 min at 13,000 rpm; supernatants (lysates) were transferred into new tubes and stored at −80 °C.
# Protein concentrations were determined using Pierce bicinchoninic acid assay (Thermo Fisher Scientific) and 40 µg/lane of total lysate was separated by SDS-PAGE on 4–12% Criterion XT Bis–Tris Gels (Bio-Rad) and subsequently transferred to polyvinylidene difluoride membranes using the Trans Blot Turbo Blotting System (Bio-Rad). For antigen detection, membranes were blocked with PBS Odyssey blocking reagent (LI-COR Biosciences) for 1 h at room temperature (RT). Primary antibodies were incubated overnight at 4 °C and the fluorescent secondary antibodies were incubated for 1 h at RT. After each antibody incubation, blots were washed with PBS with 0.05% Tween 20 (Carl Roth) for 15–30 min at RT. Fluorescent signals were quantitatively captured using the Odyssey DLx Infrared Imaging System (LI-COR Biosciences) and the half-maximal inhibitory concentration (IC50) values were calculated using GraphPad software (version 7 or newer).
# [3] = system: CCL2; experiment: CCL2 ELISA in plasma, CT26 study; format: in vivo, mouse; settings: steady-state analysis
# Description: CT26 tumor cells were cultivated in RPMI 1640 with 2 mM L-glutamine (Gibco, Invitrogen GmbH) containing 10% fetal bovine serum (Gibco) at 37 °C and 5% CO2. Cell lines were maintained in culture for no longer than 6 months, and mycoplasma contamination was excluded by enzymatic test (MycoAlert, Lonza) prior to in vivo application. Tumor cells (2 × 10^6) were transplanted subcutaneously into 6- to 8-week-old female BALB/c mice. Control mice were subjected to sham surgery without tumor cell transplantation. Blood and tumor samples were collected from untreated control and tumor-bearing mice on days 4 and 8 (n = 3 mice/group). […] Tumor diameter was measured by caliper and body weight was determined at least twice weekly. Tumor volume was calculated using the formula 0.5 × a × b^2, where a and b are the long and short diameters of the tumor, respectively.
# For tissue collection, mice were killed at predetermined time points. […] Tumors were removed, and their weights determined, then divided into three pieces, one of which was snap-frozen, one formalin fixed and paraffin embedded, and one weighed and used for FC analyses.
# CCL2 was detected in plasma samples and tumor tissue using the U-Plex mouse MCP-1 ELISA Kit (Meso Scale Diagnostics) according to the manufacturer’s instructions. […] For plasma, 12.5 µL was analyzed per animal. […]
smiles,measurement,setting,value
"CNC(=O)c1cc(Oc2ccc(NC(=O)Nc3ccc(Cl)c(C(F)(F)F)c3)c(F)c2)ccn1 [REG, Regorafenib]",transcript frequency of Adgre1 (F4/80),[1],significantly reduced
same,transcript frequency of Arg1,[1],unchanged
same,transcript frequency of CSF1R,[1],significantly reduced
same,transcript frequency of Hilpda,[1],unchanged
same,transcript frequency of Maf,[1],reduced
same,transcript frequency of MafB,[1],unchanged
same,transcript frequency of Mgl2,[1],reduced
same,transcript frequency of Mrc1 (CD206),[1],significantly reduced
same,transcript frequency of Nos2,[1],unchanged
same,transcript frequency of VEGFA,[1],unchanged
same,IC50,[2],141 ± 59 nM
same,CCL2 levels in plasma vs vehicle or untreated samples,[3],did not change

# — paper PMC10069031 (European Journal of Medical Research, 2023)
